This is an account of results in patent US8343983B2, “Substituted pyrazolo-pyrimidine compounds” (ArQule, Inc., priority 2009, dated 2013).

Where two headings read alike, the source gives them in different places.

The test system of the assay is cancer cells. Nature of the assay: MTS assay: inhibition of cell growth (formazan absorbance at 492 nm after 72 hours with test compound). In kind it is cell-based. The note with it: inhibition class. As for the experimental part:
Cells were maintained at 37° C., 5% CO2 in DMEM media supplemented with 1% fetal bovine serum, penicillin/streptomycin and fungizone (Invitrogen). Cells were seeded into 96-well tissue culture plates at 3000 per well and cultured at 37° C. for 18 hours. Test compounds were dissolved and diluted to 300× in DMSO then diluted 1:40 in DMEM. Cells were incubated with test compounds for 72 hours followed by incubation with tetrazolium compound (3-(4,5-dimethylthiazol-2-yl)-5-(3-carboxymethoxyphenyl)-2-(4-sulfophenyl)-2H-tetrazolium, inner salt; MTS) and the electron coupling reagent, phenazine methosulfate (PMS) for 4 hours. […] The ability of compounds to inhibit cell growth in this assay is correlated with the reduction of dehydrogenase enzyme activity found in metabolically active cells. The measurement of the absorbance of the formazan was assessed using an ENVISION™ (Perkin Elmer) microplate reader at 492 nm. The calculated IC50 value is the concentration of the test compound that causes a 50% decrease in the absorbance. […] A=>79% inhibition, B=>50 to 79% inhibition, C=<50% inhibition.

Setting [1] is: Homo sapiens, DLD-1 cells, read-out: DLD-1, MTS 72 hours at 10 uM.
Setting [2] is: Homo sapiens, KATO III cells, read-out: KATO III, MTS 72 hours at 10 uM.
The mark [3] stands for this setting: Homo sapiens, MDA-MB-231 cells, read-out: MDA-MB-231, MTS 72 hours at 10 uM.
[4] abbreviates: Homo sapiens, NCI-H1299 cells, read-out: NCI-H1299, MTS 72 hours at 10 uM.
Where [5] appears, read: Homo sapiens, PC-3 cells, read-out: PC-3, MTS 72 hours at 10 uM.
Where [6] appears, read: PACA-2 cells, read-out: PACA-2, MTS 72 hours at 10 uM.

With `c1ccc(CN2CCc3n[nH]c4nc(N5CCN(Cc6ccc7c(c6)OCO7)CC5)nc2c34)cc1` [Compound 15, 4-[4-(1,3-benzodioxol-5-ylmethyl)piperazin-1-yl]-6-benzyl-2,6,7,8-tetrahydro-1,2,3,5,6-pentaazaacenaphthylene], the inhibition at 10 µM by setting is: under setting [1], below 50%; under setting [2], below 50%; under setting [3], below 50%; under setting [4], below 50%; under setting [5], below 50%; under setting [6], below 50%.
Turning to `c1ccc(N2CCc3n[nH]c4nc(NCCN5CCOCC5)nc2c34)cc1` [Compound 215, N-(2-morpholin-4-ylethyl)-6-phenyl-2,6,7,8-tetrahydro-1,2,3,5,6-pentaazaacenaphthylen-4-amine], the inhibition at 10 µM under setting [1] is below 50%; the inhibition at 10 µM under setting [2] is below 50%; the inhibition at 10 µM under setting [3] was below 50%; the inhibition at 10 µM under setting [4] is below 50%; the inhibition at 10 µM under setting [5] was below 50%; the inhibition at 10 µM under setting [6] is below 50%.
Turning to `O=C(NCc1ccccc1)C1CN(Cc2ccccc2)c2nc(NCCc3c[nH]c4ccccc34)nc3[nH]nc1c23` (stereo not drawn) [Compound 226, N,6-dibenzyl-4-{[2-(1H-indol-3-yl)ethyl]amino}-2,6,7,8-tetrahydro-1,2,3,5,6-pentaazaacenaphthylene-8-carboxamide], the inhibition at 10 µM under setting [1] was above 79%; the inhibition at 10 µM under setting [2] is above 79%; the inhibition at 10 µM under setting [3] is above 79%; the inhibition at 10 µM under setting [4] is above 79%; the inhibition at 10 µM under setting [5] is above 79%; the inhibition at 10 µM under setting [6] is above 79%.
On to `CSc1nc2c3c(n[nH]c3n1)CCN2Cc1ccccc1` [Compound 1, 6-benzyl-4-(methylthio)-2,6,7,8-tetrahydro-1,2,3,5,6-pentaazaacenaphthylene], for which the inhibition at 10 µM was below 50% under setting [1]; below 50% under setting [2]; below 50% under setting [3]; below 50% under setting [4]; below 50% under setting [5]; below 50% under setting [6].
With `O=C(NCc1ccc2c(c1)OCO2)C1CN(Cc2ccccc2)c2nc(NCc3ccccc3)nc3[nH]nc1c23` (stereo not drawn) [Compound 234, N-(1,3-benzodioxol-5-ylmethyl)-6-benzyl-4-(benzylamino)-2,6,7,8-tetrahydro-1,2,3,5,6-pentaazaacenaphthylene-8-carboxamide], the inhibition at 10 µM by setting is: under setting [1], above 79%; under setting [2], above 79%; under setting [3], above 79%; under setting [4], above 79%; under setting [5], above 79%; under setting [6], 50 to 79%.
For `Clc1ccc(CNc2nc3c4c(n[nH]c4n2)CCN3c2ccccc2)cc1` [Compound 213, N-(4-chlorobenzyl)-6-phenyl-2,6,7,8-tetrahydro-1,2,3,5,6-pentaazaacenaphthylen-4-amine], the inhibition at 10 µM runs as follows: under setting [1], below 50%; under setting [2], below 50%; under setting [3], below 50%; under setting [4], 50 to 79%; under setting [5], below 50%; under setting [6], 50 to 79%.
Take `Fc1ccccc1CN1CCN(c2nc3c4c(n[nH]c4n2)CCN3Cc2ccccc2)CC1` [Compound 5, 6-benzyl-4-[4-(2-fluorobenzyl)piperazin-1-yl]-2,6,7,8-tetrahydro-1,2,3,5,6-pentaazaacenaphthylene]: the inhibition at 10 µM reads like this: under setting [1], below 50%; under setting [2], 50 to 79%; under setting [3], above 79%; under setting [4], below 50%; under setting [5], above 79%; under setting [6], below 50%.
Take `COC[C@H](C)Nc1nc2c3c(n[nH]c3n1)CCN2Cc1ccccc1` [Compound 18, 6-benzyl-N-[(1S)-2-methoxy-1-methylethyl]-2,6,7,8-tetrahydro-1,2,3,5,6-pentaazaacenaphthylen-4-amine]: the inhibition at 10 µM was below 50% under setting [1]; below 50% under setting [2]; below 50% under setting [3]; below 50% under setting [4]; below 50% under setting [5]; below 50% under setting [6].
For `COc1ccc(CN2CCCc3n[nH]c4nc(N5CCCC5)nc2c34)cc1` [Compound 244, 6-(4-methoxybenzyl)-4-pyrrolidin-1-yl-6,7,8,9-tetrahydro-2H-1,2,3,5,6-pentaazabenzo[cd]azulene], the inhibition at 10 µM under setting [1] was below 50%; the inhibition at 10 µM under setting [2] was below 50%; the inhibition at 10 µM under setting [3] is below 50%; the inhibition at 10 µM under setting [4] is below 50%; the inhibition at 10 µM under setting [5] is below 50%; the inhibition at 10 µM under setting [6] is below 50%.
For the compound `c1ccc(CN2CCc3n[nH]c4nc(NCc5cccc(-c6ccccc6)c5)nc2c34)cc1` [Compound 71, 6-benzyl-N-(biphenyl-3-ylmethyl)-2,6,7,8-tetrahydro-1,2,3,5,6-pentaazaacenaphthylen-4-amine], the inhibition at 10 µM is, setting by setting: under setting [1], 50 to 79%; under setting [2], 50 to 79%; under setting [3], 50 to 79%; under setting [4], 50 to 79%; under setting [5], below 50%; under setting [6], 50 to 79%.
With `OCCN1CCN(c2nc3c4c(n[nH]c4n2)CCN3Cc2ccccc2)CC1` [Compound 75, 2-[4-(6-benzyl-2,6,7,8-tetrahydro-1,2,3,5,6-pentaazaacenaphthylen-4-yl)piperazin-1-yl]ethanol], the inhibition at 10 µM reads like this: under setting [1], below 50%; under setting [2], below 50%; under setting [3], below 50%; under setting [4], below 50%; under setting [5], below 50%; under setting [6], below 50%.
Take `CN1CCN(c2nc3c4c(n[nH]c4n2)CCN3Cc2ccccc2)CC1` [Compound 80, 6-benzyl-4-(4-methylpiperazin-1-yl)-2,6,7,8-tetrahydro-1,2,3,5,6-pentaazaacenaphthylene]: the inhibition at 10 µM is below 50% under setting [1]; below 50% under setting [2]; below 50% under setting [3]; below 50% under setting [4]; below 50% under setting [5]; below 50% under setting [6].
With `CCOC(=O)C1CN(Cc2ccccc2)c2nc(SC)nc3[nH]nc1c23` (stereo not drawn) [Compound 222, ethyl 6-benzyl-4-(methylsulfanyl)-2,6,7,8-tetrahydro-1,2,3,5,6-pentaazaacenaphthylene-8-carboxylate], the inhibition at 10 µM is, setting by setting: under setting [1], below 50%; under setting [2], below 50%; under setting [3], below 50%; under setting [4], below 50%; under setting [5], below 50%; under setting [6], below 50%.
Take `COc1ccc(CN2CCCc3n[nH]c4nc(N5CCOCC5)nc2c34)cc1` [Compound 242, 6-(4-methoxybenzyl)-4-morpholin-4-yl-6,7,8,9-tetrahydro-2H-1,2,3,5,6-pentaazabenzo[cd]azulene]: the inhibition at 10 µM is, setting by setting: under setting [1], above 79%; under setting [2], below 50%; under setting [3], below 50%; under setting [4], below 50%; under setting [5], below 50%; under setting [6], 50 to 79%.
As for `CN(C)CCN(C)c1nc2c3c(n[nH]c3n1)CCN2Cc1ccccc1` [Compound 23, N-(6-benzyl-2,6,7,8-tetrahydro-1,2,3,5,6-pentaazaacenaphthylen-4-yl)-N,N′,N′-trimethylethane-1,2-diamine], the inhibition at 10 µM is below 50% under setting [1]; below 50% under setting [2]; 50 to 79% under setting [3]; below 50% under setting [4]; above 79% under setting [5]; below 50% under setting [6].
For `c1ccc(CN2CCc3n[nH]c4nc(NCCc5ccc(-c6ccccc6)cc5)nc2c34)cc1` [Compound 66, 6-benzyl-N-(2-biphenyl-4-ylethyl)-2,6,7,8-tetrahydro-1,2,3,5,6-pentaazaacenaphthylen-4-amine], the inhibition at 10 µM under setting [1] lay within 50 to 79%; the inhibition at 10 µM under setting [2] is below 50%; the inhibition at 10 µM under setting [3] is below 50%; the inhibition at 10 µM under setting [4] is below 50%; the inhibition at 10 µM under setting [5] was below 50%; the inhibition at 10 µM under setting [6] lay within 50 to 79%.
Regarding `COc1ccc(CN2CCCc3n[nH]c4nc(NC5CCN(C)CC5)nc2c34)cc1` [Compound 246, 6-(4-methoxybenzyl)-N-(1-methylpiperidin-4-yl)-6,7,8,9-tetrahydro-2H-1,2,3,5,6-pentaazabenzo[cd]azulen-4-amine], the inhibition at 10 µM runs as follows: under setting [1], below 50%; under setting [2], below 50%; under setting [3], below 50%; under setting [4], below 50%; under setting [5], below 50%; under setting [6], below 50%.
